Laboratory results taken from US20050245559A1, “Treatment and prevention of prostate cancer” (priority 2004, published 2005).

Legend:
[1] = test system: Caspase-7; experiment: Caspase-7 activation; type: cell-based; settings: FIG. 6
[2] = test system: prostate cancer cells; experiment: cell cycle effect in prostate cancer cells; type: cell-based; settings: stated as apparent mechanism
Excerpt: (§1) The increasing apoptosis and necrosis in hormone-independent and hormone dependent prostate cancer cells after exposure to tetrandrine occurs in a dose- and time-dependent manner.

[3] = doses of from 100 mg/day to 300 mg/day, prior studies; cited from earlier work
[4] = test system: PC3 prostate cancer cells; experiment: clonogenic activity of PC3 prostate cancer cells; type: cell-based; settings: dose dependent, FIG. 5
[5] = test system: calcium channel; settings: cited from earlier work
[6] = test system: Bcl-XL; experiment: Bcl-XL down-regulation in prostate cancer cells; type: cell-based; settings: FIG. 9
[7] = test system: LNCaP cells; experiment: growth and proliferation of LNCaP cells stimulated by fetal calf serum (FCS); type: cell-based
[8] = test system: cytochrome-C; experiment: mitochondrial cytochrome C release; type: cell-based; settings: FIG. 8
[9] = test system: prostate specific antigen (PSA); experiment: DHT-stimulated prostate specific antigen (PSA) expression in LNCaP cells; type: cell-based
[10] = test system: Caspase-8; experiment: Caspase-8 activation; type: cell-based; settings: FIG. 6
[11] = test system: PARP; experiment: PARP cleavage; type: cell-based; settings: FIG. 7
[12] = test system: prostate cancer cells; experiment: morphology of cellular organelles of prostate cancer cells; type: cell-based; settings: about 10 μM and 20 μM tetrandrine
[13] = test system: LNCaP prostate cancer cells; experiment: flow cytometry of apoptosis and necrosis in LNCaP cells; type: cell-based; settings: 24 hours or 48 hours exposure
Excerpt: as §1

[14] = test system: PC3 prostate cancer cells; experiment: killing of hormone-independent PC3 prostate cancer cells; type: cell-based; settings: increasing concentrations, 96 hours of exposure; FIG. 4
[15] = test system: Caspase-3; experiment: Caspase-3 activation; type: cell-based; settings: FIG. 6
[16] = test system: LNCaP cells; experiment: dose response of LNCaP growth and proliferation, optical density of stained live cells; type: cell-based
[17] = test system: LNCaP cells; experiment: growth and proliferation of LNCaP cells stimulated by dihydrotestosterone (DHT); type: cell-based
Protocol: Tetrandrine inhibits the growth and proliferation of prostate cancer cells in a dose- and time-dependent manner. For example, the growth and proliferation of LNCaP cells stimulated by dihydrotestosterone (DHT) and fetal calf serum (FCS) can be stopped or inhibited and, at higher concentrations or at longer exposure times, the cells are killed. Preferably, the concentration of tetrandrine used is between about 10 μM and about 60 μM. […] The cells take on an atrophied appearance after contact with tetrandrine.

[18] = test system: Caspase-9; experiment: Caspase-9 activation; type: cell-based; settings: FIG. 6

Caspase-7 activation [1]: concentration-dependent increase
Caspase-8 activation [10]: concentration-dependent increase
Caspase-3 activation [15]: concentration-dependent increase
Caspase-9 activation [18]: concentration-dependent increase
Structure (SMILES): COc1ccc2cc1Oc1ccc(cc1)CC1c3cc(c(OC)cc3CCN1C)Oc1c(OC)c(OC)cc3c1C(C2)N(C)CC3 (centres unmarked) [tetrandrine, (1B)-6,6′,7,12-tetramethoxy-2,2′-dimethyl-berbaman]
mechanism of decreased proliferation / increased apoptosis (cell cycle) [2]: cell cycle arrest in G1
toxicity [3]: minimal toxicity
clonogenic activity of PC3 cells [4]: inhibition of the clonogenic activity
clonogenic activity of PC3 cells ([4]; listed as Tetrandrine): inhibits the clonogenic activity
calcium channel blocker activity [5]: minimal
Bcl-XL level in prostate cancer cells [6]: concentration-dependent down-regulation
cell number and morphology of LNCaP cells growing under FCS ([7]; 10 μM tetrandrine, FIG. 2A): decrease in cell number and the notable change in cell morphology
cell number and morphology of LNCaP cells growing under FCS ([7]; 20 μM tetrandrine, FIG. 2A): the decrease in cell number and the change in cell morphology is even more apparent
growth and proliferation of LNCaP cells stimulated by FCS ([7]; about 10 μM to about 60 μM tetrandrine, FIG. 1B): inhibition of the growth and proliferation
cell number and morphology of LNCaP cells growing under FCS ([7]; concentration not given): sharp decrease in cell number and a significant change in cell morphology
cytoplasmic cytochrome-C [8]: concentration-dependent increase
mitochondrial cytochrome-C [8]: concentration-dependent decrease
DHT-stimulated PSA expression [9]: inhibits DHT-stimulated prostate specific antigen (PSA) expression in a dose-dependent manner
PARP cleavage [11]: concentration-dependent increase
morphology of nuclei and cytoskeleton [12]: nuclei of prostate cancer cells appear to shrink and round while the cytoskeleton is disrupted
apoptosis and necrosis by flow cytometry [13]: increasing apoptosis and necrosis in a dose- and time-dependent manner
killing of hormone-independent PC3 cells [14]: dose-dependent killing
death of LNCaP cells at longer exposure ([16]; 48 hours and 72 hours versus 24 hours, each concentration): death of LNCaP cells is greater
growth of LNCaP cells, stained live cells ([16]; about 5 μM tetrandrine, 24 hours): growth of LNCaP cells is inhibited
killing of LNCaP cells, stained live cells ([16]; about 60 μM tetrandrine, 24 hours): almost all LNCAP cells are killed
cell number and morphology of LNCaP cells in presence of FCS and DHT ([17]; about 10 μM to about 20 μM tetrandrine, FIG. 2B): decrease in cell number and atrophied appearance
growth and proliferation of LNCaP cells stimulated by DHT ([17]; about 10 μM to about 60 μM tetrandrine, FIG. 1A): inhibition of the growth and proliferation
